This is an account of results in patent publication US4997838A, “Pyrrolopyrimidine derivatives, their production and use” (Takeda Chemical Industries, Ltd., priority 1988, dated 1991).

In brackets after ≈: the same amount, converted by molar mass.

In general, IC50 refers to the midpoint of a concentration-inhibition curve.

For one data set, the system named is solid cancer. The settings on record: in words; clinical use; cited from earlier work.
Data set [1] deals with dihydrofolic acid reductase. The settings on record: in words; cited from earlier work.
Data set [2] has as its system Human nasopharyngeal cancer KB cells. As to the kind of experiment: cell growth inhibiting effect in KB cells (MTT). The settings on record: 72 hours. The format is cell-based. How it is done: Human nasopharyngeal cancer KB cells (1×10^4 cells/ml) prepared according to a conventional method were inoculated into each well of the 96-microwell plate (0.1 ml in a well) and subjected to standing culture at 37° C. under 5% CO2 for 24 hours. To this was added a solution of one of the compounds obtained in the Working Examples in 10% MEM (Nissui Pharmaceutical Co. Ltd.), and subjected again to standing culture at 37° C. under 5% CO2 for 72 hours. Then the culture was pipetted out, and another 0.1 ml of the solution of MTT (Dojindo Laboratories) in 10% MEM (1.0 mg/ml) was added and incubated at 37° C. for 4 hours. Then 0.1 ml of the 10% SDS solution (Wako Pure Chemicals) was added and incubated at 37° C. for further 24 hours. The absorbance at 590 nm was measured and the IC50 value of the compound was defined as the concentration of the compound required to decrease the number of cells in the untreated control group by 50%.

The subject of data set [3] is Human fetal normal lung fibroblasts HEL. Description: cell growth inhibiting effect in HEL cells (MTT). The class given is cell-based. The settings on record: Fibroblast, 72 hours. How it is done:
(2) Human fetal normal lung fibroblasts HEL (1×10^4 cells/ml) were suspended in the MEM culture medium (Nippon Flow Laboratories) and 0.1 ml of the suspension was inoculated into each well of the 96-microwellplate. After standing culture at 37° C. under 5% CO2 for 24 hours, MEM culture medium containing the compound of this invention was added and the mixture was incubated for further 72 hours. The medium was replaced by the medium containing 1 μg/ml of MTT (Dojindo Laboratories), to which was added 10% SDS (Wako Pure Chemicals), and incubated overnight. Absorbance at 590 nm was measured by he Multiscan (Titertec Co.). The IC50 value was determined by comparing the absorbance in the untreated control group.

Data set [4] deals with Human Leukemia cells HL-60. Description: cell growth inhibiting effect in HL-60 cells ([3H]-thymidine incorporation). The settings on record: HL-60, 68 hours + 4 hours [3H]-thymidine. The format is cell-based. Here is the method: (1) Human Leukemia cells HL-60 (2×10^5 cells/ml) were suspended in the GIT culture medium (Wako Pure Chemicals) containing the compound of this invention and 0.2 ml of the suspension was inoculated into each well of the 96-microwell plate. After standing culture at 37° C. under 5% CO2 for 68 hours, 1 μCi of [^3 H]-thymidine (5 Ci/mmol) was added and the mixture was incubated for 4 further hours. For measurement of the incorporation of thymidine into the cells, the acid-insoluble fraction was collected on a glass filter, and the radioactivity of the fraction was measured by a liquid scintillation counter. The IC50 value of the compound was defined as the concentration of the compound required to decrease the radioactivity incorporated into the cells in the untreated control group by 50%.
A general note: Incorporation of labelled thymidine or its analogues reports DNA synthesis.

Consider `CN(Cc1cnc2nc(N)nc(N)c2n1)c1ccc(C(=O)N[C@@H](CCC(=O)O)C(=O)O)cc1` [MTX], for which, in the data set with solid cancer, the “effect on solid cancer” value is given as “little effect on solid cancer” and the toxicity entry was “relatively strong toxicity”. Further, in data set [1], the “inhibition of dihydrofolic acid reductase” value is “inhibit the reduction from dihydrofolic acid into tetrahydrofolic acid by coupling strongly with the dominant enzyme”. Regarding `Nc1nc(N)c2c(CCCc3ccc(C(=O)N[C@@H](CCC(=O)O)C(=O)O)cc3)c[nH]c2n1` [Working Example 4, N-[4-[3-(2,4-diamino-7H-pyrrolo [2,3-d]pyrimidin-5-yl)propyl]benzoyl]-L-glutamic acid], in data set [2], it took 0.0003 µg/mL (≈ 0.681 nM) to reach half-maximal inhibition (IC50). As for `Nc1nc(O)c2c(n1)NCC2CCCc1ccc(C(=O)N[C@@H](CCC(=O)O)C(=O)O)cc1` (stereo partly drawn) [Working Example 14, N-[4-[3-(2-amino-4-hydroxy-5,6-dihydropyrrolo[2,3-d]pyrimidin-5-yl)propyl]benzoyl]-L-glutamic acid], the IC50 in data set [3] is > 20 µg/mL; in data set [4], 0.04 µg/mL. Regarding `Nc1nc(N)c2c(CCCc3ccc(C(=O)N[C@@H](CCC(=O)O)C(=O)O)cc3)c(O)[nH]c2n1` [Working Example 6, N-[4-[3-(2,4-diamino-6-hydroxy-7H-pyrrolo[2,3-d]pyrimidin-5-yl)propyl]benzoyl]-L-glutamic acid], inhibition in data set [2] was half-maximal at 0.08 µg/mL (≈ 175 nM) (IC50). On the same count and under the same terms, then `Nc1nc(N)c2c(n1)NCC2CCCc1ccc(C(=O)N[C@@H](CCC(=O)O)C(=O)O)cc1` (stereo partly drawn) [Working Example 16, N-[4-[3-(2,4-diamino-5,6-dihydropyrrolo[2,3-d]pyrimidin-5-yl)propyl]benzoyl]-L-glutamic acid], with 0.0006 µg/mL (≈ 1.36 nM).
